Measurements taken from patent US9615580B2, “Fused heterocyclic compound and use thereof for pest control” (Sumitomo Chemical Company, Limited, priority 2012, dated 2017).

Columns and labels:
Assay type in all cases: in vivo
Plutella xylostella = experiment: Test Example 6: spray on cabbage, Plutella xylostella larvae released; conditions: 120 h, 20 mL/cup sprayed on cabbage, second instar larvae, 25° C., 5 days, read-out: death rate
Method: Each test solution was prepared by diluting a formulation containing any of the present compounds 1-4, 1-5, 1-6, 1-8, 1-9, 1-10, 1-16, 1-18, 1-19, 1-20, 1-29, 1-46, 1-48, 1-49, 1-50, 1-63 and 1-76 as obtained in Formulation Example 5, with water so as to give 500 ppm of the concentration of the active ingredient.
On the other hand, Cabbage (the third leaf stage) planted in a polyethylene cup was sprayed with 20 mL/cup of each test solution. After the test solution was dried, the aerial part was cut off, and then placed in a 50 mL volume cup. Five (5) second instar larvae of Plutella xylostella were released into the cup, and the cup was sealed with a lid. After the cup was kept at 25° C. for 5 days, the number of living insects was counted. A death rate was calculated according to the following equation: Death rate (%)=(Number of dead insects/Number of tested insects)×100

Nilaparvata lugens [1] = experiment: Test Example 3: spray on rice seedling, Nilaparvata lugens larvae released; conditions: 144 h, 10 ml sprayed on rice seedling, third-fourth instar larvae, after 6 days
Method: On the other hand, a rice seedling (the second leaf stage) planted in a polyethylene cup was sprayed with 10 ml of each test solution. After air-drying, 20 third-fourth instar larvae of Nilaparvata lugens were released, and kept in the greenhouse of 25° C. After 6 days, the number of insect of living Nilaparvata lugens parasitized on the rice was examined, and a control value was calculated according to the following equation: Controlling value (%)={1−(Cb×Tai)/(Cai×Tb)}×100 wherein the symbols in the above equation represent as follows: Cb: the number of insects in a non-treated section before treatment Cai: the number of insects in a non-treated section on observation Tb: the number of insects in a treated section before treatment Tai: the number of insects in a […] the non-treated section represents a section where the test diluted solution prepared by diluting the formulation without the present compound as in Formulation Example 5 with the same amount of water as in the treated-section was used.

Aphis gossypii = experiment: Test Example 1: foliar spray on cucumber seedling inoculated with Aphis gossypii; conditions: 144 h, 500 ppm active ingredient, 20 ml sprayed on cucumber seedling, 6 days after spraying
Method: On the other hand, on a cucumber seedling (the first true leaf stage) planted in a plastic cup was inoculated with about 30 Aphis gossypii (whole stage), and leaving it for a day. Twenty (20) ml of each test solution was sprayed on the seedling. Six (6) days after spraying, the number of the surviving Aphis gossypii parasitized on the leaves of the cucumber was examined, and a control value was calculated according to the following equation: Controlling value (%)={1−(Cb×Tai)/(Cai×Tb)}×100 wherein the symbols in the above equation represent as follows: Cb: the number of insects in a non-treated section before treatment Cai: the number of insects in a non-treated section on observation Tb: the number of insects in a treated section before treatment Tai: the number of insects in a […] the non-treated section represents a section where the test diluted solution prepared by diluting the formulation without the present compound as in Formulation Example 5 with the same amount of water as in the treated-section was used.

Nilaparvata lugens [2] = experiment: Test Example 4: soil drench of rice seedling, Nilaparvata lugens larvae released; conditions: 144 h, 5 ml drench at foot of rice seedling, larvae released after 7 days, counted 6 days later
Method: On the other hand, a rice seedling (2 weeks after sowing, the second leaf stage) planted in a plastic cup was drenched at its foot with 5 ml of each test solution, and kept in a greenhouse of 25° C. for 7 days. Twenty (20) third-fourth instar larvae of Nilaparvata lugens were released, and further kept in the greenhouse for 6 days, then the number of insect of living Nilaparvata lugens parasitized on the rice was examined, and a control value was calculated according to the following equation: Controlling value (%)={1−(Cb×Tai)/(Cai×Tb)}×100 wherein the symbols in the above equation represent as follows: Cb: the number of insects in a non-treated section before treatment Cai: the number of insects in a non-treated section on observation Tb: the number of insects in a treated section before treatment Tai: the number of insects in a […] the non-treated section represents a section where the test diluted solution prepared by diluting the formulation without the present compound as in Formulation Example 5 with the same amount of water as in the treated-section was used.

Musca domestica = experiment: Test Example 8: treated filter paper with sucrose bait, Musca domestica; conditions: 500 ppm, 0.7 ml on filter paper, female imagoes, after 24 hours
Method: Each test solution was prepared by diluting a formulation containing any of the present compounds 1-4, 1-6, 1-8, 1-9, 1-10, 1-63 and 1-95 as obtained in Formulation Example 5, with water so as to give 500 ppm of the concentration of the active ingredient.
(§1) A filter paper having a diameter of 5.5 cm was spread on the bottom of a polyethylene cup having a diameter of 5.5 cm and each test solution (0.7 ml) was added dropwise onto the filter paper. As a bait sucrose (30 mg) was uniformly placed on the filter paper. Into the polyethylene cup, 10 female imagoes of Musca domestica were released and the cup was sealed with a lid. After 24 hours, the number of surviving Musca domestica was examined and the death rate of the pest was calculated according to the following equation: Death rate (%)=(Number of dead insects/Number of tested insects)×100

Laodelphax striatella = experiment: Test Example 12: spray on rice seedling, Laodelphax striatella larvae released; conditions: 50 ppm, 10 ml sprayed on rice seedling, third instar larvae, after 5 days; method equation is a death rate
Method: (§2) Any of the present compounds 1-6, 1-8, 1-9 and 1-10 (10 mg) was dissolved in a mixed solution (0.1 ml) of xylene, DMF and Sorpol® 3005X (manufactured by Toho Chemical Industry Co., Ltd.) in a ratio of 4:4:1 to obtain a formulation. Each formulation was diluted with water so as to give 50 ppm of the concentration of the active ingredient.
(§3) On the other hand, a rice seedling (2.5 leaf stage) planted in a polyethylene cup was sprayed with 10 ml of each test solution. After air-drying the seedling, 10 third instar larvae of Laodelphax striatella were released, and kept in the greenhouse of 25° C. After 5 days, the number of living insects was counted. A death rate was calculated according to the following equation: Death rate (%)={10−(Number of living insects after 5 days)/10}×100

Sogatella furcifera = experiment: Test Example 13: spray on rice seedling, Sogatella furcifera larvae released; conditions: 50 ppm, 10 ml sprayed on rice seedling, third instar larvae, after 5 days; method equation is a death rate
Method: as §2
as §3, with “Sogatella furcifera” for “Laodelphax striatella”, “days)/10}×100 As a result, in the treated-section using each test solution containing each of the present compounds 1-6, 1-8, 1-9 and 1-10, the control value was 100%.” for “days)/10}×100”

Blattalla germanica = experiment: Test Example 9: treated filter paper with sucrose bait, Blattalla germanica; conditions: 500 ppm, 0.7 ml on filter paper, male imagoes, after 6 hours
Method: Each test solution was prepared by diluting a formulation containing any of the present compounds 1-9 and 1-19 as obtained in Formulation Example 5, with water so as to give 500 ppm of the concentration of the active ingredient.
as §1, with “Sucrose (30 mg) as” for “As”, “bait” for “bait sucrose (30 mg)”, “2 male” for “10 female”, “Blattalla germanica” for “Musca domestica”, “6” for “24”

| SMILES | pest or weed control at 500 ppm (Plutella xylostella) [%] | pest or weed control at 500 ppm (Nilaparvata lugens [1]) [%] | pest or weed control at 500 ppm (Aphis gossypii) [%] | pest or weed control at 500 ppm (Nilaparvata lugens [2]) [%] | death rate (Musca domestica) [%] | control value (Laodelphax striatella) [%] | control value (Sogatella furcifera) [%] | death rate (Blattalla germanica) [%] |
| --- | --- | --- | --- | --- | --- | --- | --- | --- |
| CCS(=O)(=O)c1cccnc1-c1nc2cc([S+]([O-])C(F)(F)F)cnc2o1 (centres unmarked) [present compound 1-4, 2-(3-ethylsulfonylpyridin-2-yl)-6-(trifluoromethylsulfinyl)oxazolo[5,4-b]pyridine] | ≥ 80 | ≥ 90 | ≥ 90 | ≥ 90 | 100 | – | – | – |
| CCS(=O)(=O)c1cccnc1-c1nc2cc(S(=O)(=O)C(F)(F)F)cnc2o1 [present compound 1-5, 2-(3-ethylsulfonylpyridin-2-yl)-6-(trifluoromethylsulfonyl)oxazolo[5,4-b]pyridine] | ≥ 80 | – | ≥ 90 | – | – | – | – | – |
| CCSc1cccnc1-c1nc2cc(SC(F)(F)F)ccc2o1 [present compound 1-6, 2-(3-ethylsulfanylpyridine-2-yl)-5-(trifluoromethylsulfanyl)benzoxazole] | ≥ 80 | ≥ 90 | ≥ 90 | ≥ 90 | 100 | 100 | 100 | – |
| CCS(=O)(=O)c1cccnc1-c1nc2cc(SC(F)(F)F)ccc2o1 [present compound 1-8, 2-(3-ethylsulfonylpyridin-2-yl)-5-(trifluoromethylsulfanyl)benzoxazole] | ≥ 80 | ≥ 90 | ≥ 90 | ≥ 90 | 100 | 100 | 100 | – |
| CCS(=O)(=O)c1cccnc1-c1nc2cc([S+]([O-])C(F)(F)F)ccc2o1 (centres unmarked) [present compound 1-9, 2-(3-ethylsulfonylpyridin-2-yl)-5-(trifluoromethylsulfinyl)benzoxazole] | ≥ 80 | ≥ 90 | ≥ 90 | ≥ 90 | 100 | 100 | 100 | 100 |
| CCS(=O)(=O)c1cccnc1-c1nc2cc(S(=O)(=O)C(F)(F)F)ccc2o1 [present compound 1-10, 2-(3-ethylsulfonylpyridin-2-yl)-5-(trifluoromethylsulfonyl)benzoxazole] | ≥ 80 | ≥ 90 | ≥ 90 | ≥ 90 | 100 | 100 | 100 | – |
| CCSc1cc(C(F)(F)F)cnc1-c1nc2cc(SC(F)(F)F)ccc2o1 [present compound 1-16, 2-(3-ethylsulfanyl-5-trifluoromethylpyridine-2-yl)-5-(trifluoromethylsulfanyl)benzoxazole] | ≥ 80 | – | – | – | – | – | – | – |
| CCS(=O)(=O)c1cc(C(F)(F)F)cnc1-c1nc2cc(SC(F)(F)F)ccc2o1 [present compound 1-18, 2-(3-ethylsulfonyl-5-trifluoromethylpyridine-2-yl)-5-(trifluoromethylsulfanyl)benzoxazole] | ≥ 80 | ≥ 90 | ≥ 90 | – | – | – | – | – |
| CCS(=O)(=O)c1cc(C(F)(F)F)cnc1-c1nc2cc([S+]([O-])C(F)(F)F)ccc2o1 (centres unmarked) [present compound 1-19, 2-(3-ethylsulfonyl-5-trifluoromethylpyridine-2-yl)-5-(trifluoromethylsulfinyl)benzoxazole] | ≥ 80 | ≥ 90 | ≥ 90 | ≥ 90 | – | – | – | 100 |
| CCS(=O)(=O)c1cc(C(F)(F)F)cnc1-c1nc2cc(S(=O)(=O)C(F)(F)F)ccc2o1 [present compound 1-20, 2-(3-ethylsulfonyl-5-trifluoromethylpyridine-2-yl)-5-(trifluoromethylsulfonyl)benzoxazole] | ≥ 80 | – | ≥ 90 | – | – | – | – | – |
| CCSc1cccnc1-c1nc2cc([S+]([O-])C(F)(F)F)ccc2o1 (centres unmarked) [present compound 1-63, 2-(3-ethylsulfanylpyridine-2-yl)-5-(trifluoromethylsulfinyl)benzoxazole] | ≥ 80 | – | ≥ 90 | ≥ 90 | 100 | – | – | – |
| CCSc1cc(C(F)(F)F)cnc1-c1nc2cc([S+]([O-])C(F)(F)F)cnc2o1 (centres unmarked) [present compound 1-65, 2-(3-ethylsulfanyl-5-trifluoromethylpyridine-2-yl)-6-(trifluoromethylsulfinyl)oxazolo[5,4-b]pyridine] | – | – | ≥ 90 | – | – | – | – | – |
| CCS(=O)(=O)c1ccc[n+]([O-])c1-c1nc2cc(S(=O)(=O)C(F)(F)F)ccc2o1 [present compound 1-76] | ≥ 80 | ≥ 90 | ≥ 90 | ≥ 90 | – | – | – | – |
